The record followed here is a melting point compilation (Tetko et al.; mined from patent text by program, amines drawn as free bases though some values may be those of a salt).

One may read the melting point as the temperature, or range, at which the solid turns liquid.

The compound `CC(C)c1n[nH]c2c(O)nc(O)nc12` registered a melting point of 295 to 298 °C.
Next, `N#Cc1cccc(CN2CCc3ccc(C(=O)CCCC4CCN(Cc5ccccc5Cl)CC4)cc3CC2)c1`: 121 to 122 °C; `CC(C)(O)CCn1c(=O)n(C(=O)N[C@H](C(N)=O)C(C)(C)C)c2ccccc21`: 248 °C.
Compound `Cc1c(O)ccc(C=O)c1O` gave a melting point of 150 °C.
Next, `Cc1ccsc1C(Cc1ccccc1N)N(C)C=O` (stereo not given): 111 to 112 °C; `COc1cc2cc(COC(C)=O)c(COC(C)=O)c(-c3ccncc3)c2cc1OC`: 165 to 167 °C.
Next, `Nc1ccc(-c2cccc(C(F)(F)F)c2)nn1`: 138 to 139 °C; `CCN(C)C(C)CN1CCc2c(c(=O)oc3cc(OC)ccc23)C1` (stereo not given): 102 to 104 °C; `O=C(NC(=O)c1c(F)cccc1Cl)Nc1ccc(Br)cn1`: 207 to 213 °C.
As for `COc1ccc(Cn2c(=O)c3ccccc3n(CCCCN3CCC(OC(c4ccccc4)c4ccccc4)CC3)c2=O)cc1`, the melting point was in the range of 99 to 100 °C.
The figure for `CC(=O)OCC(=O)C1C(C)CC2C3CC(Cl)C4=CC(=O)C=CC4(C)C3(Cl)C(O)CC21C` (stereo not given) is 238 °C.
The figure for `O=[N+]([O-])c1ccc2c(c1)C(=NO)CCO2` is 173 to 178 °C; for `CCCc1c(OCCCOc2ccc3c(=O)cc(C(=O)OC)oc3c2CCC)ccc(C(C)=O)c1O` it is 113 to 115 °C.
Consider `COC(=O)Cc1ccc(CN2CCN(C(c3ccccc3)c3ccccc3)CC2)cc1`, for which the melting point fell in the range of 124 to 125 °C.
The compound `CC(C(=O)N(C)CCO)c1cc(C(C)(C)C)c(O)c(C(C)(C)C)c1` (stereo not given) had a melting point of 66 °C.
Compound `CC(=O)N(Cc1ccc2c(c1)OCO2)c1ccc(Oc2ccccc2)cc1` displayed a melting point of 75 to 76 °C.
Next, `CC(C)(C)c1cc(CN)cc(C(C)(C)C)c1O`: 159 °C; `CC(=O)c1cc(S(N)(=O)=O)ccc1O`: 197 to 199 °C.
`CCCCc1ccc(-c2ccc(CCc3ccc(OC)cc3)cc2)c(F)c1` had a melting point of 49 °C.
The figure for `CCCN1CCC(Cc2ccc3c(c2)c(Cc2ccc(C(=O)O)cc2OC)cn3C)C1=O` (stereo not given) is 202 to 212 °C; for `CCOC(=O)CCc1cccc(-c2c(CC(=O)Nc3ccc(F)cc3C(F)(F)F)c(=O)oc3ccccc23)c1` it is 163 to 164 °C; for `CC12CC=C3c4ccc(O)cc4CCC3(C=C(F)F)C1CCC2O` (stereo not given) it is 103 to 106 °C.
The compound `N#CC1CN1C(=O)NC(=O)c1ccc(-c2ccccc2)cc1` (stereo not given) registered a melting point of 168 to 172 °C.
Next, `Cc1nc2ccc3c(c2o1)C(=O)CC3`: 106 to 107 °C; `COc1cc(C(=O)NC(C)(C)C)ccc1S(=O)(=O)N1C(=O)C(N)(c2ccccc2Cl)c2cc(Cl)ccc21` (stereo not given): 263 to 265 °C; `CCOc1cc(C=O)cc2c1OC1(C=C2Br)CCN(C(=O)OC(C)(C)C)CC1`: 148 to 150 °C.
Next, `CCOC(=O)c1ccc(NC(=O)C(COc2cccnc2)NS(=O)(=O)c2ccc(Cl)cc2)cc1` (racemic): 119 to 124 °C; `COC(=O)[C@H]1[C@H](c2ccc3c(c2)OCO3)c2ccc(O)cc2[C@@H]1c1ccc(OC)cc1` (racemic): 187 to 188 °C.
Next, `Cc1cn(-c2ccc(NC(=O)c3ccc(Cl)c(C#Cc4ccc(NC5CC5)nn4)c3)cc2C(F)(F)F)cn1`: 150 to 152 °C; `COc1ccc(-n2nc(C(F)(F)F)cc2-c2ccc(S(C)(=O)=O)cc2)cc1Br`: 164 to 166 °C.
`CC(C)(C)c1cc(CCC(=O)O)cc2c1OC(=O)C2` yielded a melting point of 167 to 169 °C.
`CC(C)(C)OC(=O)N(C(=O)OC(C)(C)C)c1sc(-c2cncc(F)c2)nc1F` returned a melting point of 143 °C.
Next, `COc1ccc(CNc2ccccc2[N+](=O)[O-])cc1`: 75 to 78 °C; `Cc1cc(C)c2nc(C)n(Cc3ccc(NCC4CCN(C5CCOCC5)CC4)cc3)c2n1`: 148 to 150 °C.
With `CC(=O)OC(C)c1ccc2occ(C#N)c(=O)c2c1` (stereo not given), the melting point was in the range of 148 to 149 °C.
In the case of `Cc1ccc(-c2[nH]c(-c3c(Cl)cccc3Cl)nc2-c2ccncc2)cc1`, the melting point fell in the range of 295 to 296 °C.
In turn, `O=[N+]([O-])c1cnn2ccccc12` had a melting point of 179 to 182 °C.
Compound `O=C(O)C(=O)c1cn(Cc2ccc(F)cc2)c2ccc(-c3ccccc3)cc12` gave a melting point of 165 to 166 °C.
Next, `O=C1CCC2=C(c3ccc(Cl)cc3)c3ccccc3C2N1` (stereo not given): 236 to 238 °C.
Next, `COc1cc(Cl)nc(Nc2ccccc2)n1`: 101 to 103 °C.
Next, `CC(=O)c1nc(-c2ccncc2C)[nH]c1C`: 185 to 187 °C; `O=C(c1ccccc1)N1CCC(Cc2ccccc2)(C(=O)O)CC1`: 183 to 189 °C.
For the compound `CN1Cc2c([N+](=O)[O-])ncn2-c2ccccc2C1=O`, the melting point is 227 to 229 °C.
As to `CC(C)Nc1cccnc1N1CCN(C(=O)c2ccc(C(=O)NCCCO)cc2)CC1`, the melting point lay in the range of 110 to 111 °C.
The figure for `C=C=CP1(=O)OCC(C)(C)CO1` is 128 to 133 °C; for `CC(C)(N)CNC(N)=O` it is 58 to 62 °C.
With `O=C1C=C(c2cccn2Cc2ccccc2)C(=O)c2ccccc21`, the melting point is 99 °C.
The figure for `O=C1NC2c3ccccc3CC2O1` (stereo not given) is 94 to 95 °C.
The compound `O=C(CCc1ccsc1)CC(=O)N1CCOCC1` displayed a melting point of 81 to 84 °C.
Next, `FC(F)(F)C(F)(F)Oc1ccc(-c2nnco2)cc1`: 87 to 89 °C.
In turn, `CC(=O)NC(C=CCP(=O)(O)O)C(=O)O` (stereo not given) had a melting point of 155 °C.
Next, `CC(CCC(=O)NC(C)(C)C)C1CC=C2C3=C(CCC21C)C1(C)CCC(O)C(C)(C)C1CC3` (stereo not given): 171 to 176 °C; `C[C@@H]1S[C@@H](C(=O)Nc2ccc(CN3C(=O)CSC3=O)cc2)Cc2cc3c(cc2C1=O)OCO3`: 232 to 235 °C; `CN(C)c1ncnc2[nH]c(-c3ccc(Cn4ccnc4)cc3)cc12`: 273 to 275 °C.
The figure for `Cc1c(C(=O)Nc2ccc(OCCN3CCOCC3)c(C#N)c2)cnn1-c1ccc(C(F)(F)F)cc1` is 191 to 193 °C; for `N#CCCCCCNC(N)=S` it is 69 to 71 °C; for `CCCCC[C@H]1CC[C@H](c2ccc(-c3ccc(C=O)cc3)cc2)CC1` it is 115 to 116 °C.
The figure for `CCOC(=O)c1ccc(OCCCCc2cc(C)no2)cc1` is 61 °C.
Consider `Cc1ccc(C2SC3(CCN(CCCC(=O)c4ccc(F)cc4)CC3)c3ccccc32)cc1` (stereo not given), for which the melting point lay in the range of 134 to 135 °C.
The figure for `O=C(NN=CC=Cc1ccc([N+](=O)[O-])o1)c1cc2ccccc2cc1O` is 259 °C.
The figure for `CC#CN(NC(=O)c1ccc(Cl)c(S(N)(=O)=O)c1)c1ccccc1` is 168 to 170 °C; for `O=C(c1cncnc1)c1ccc(Cl)cc1Cl` it is 75 to 78 °C.
Next, `CCC(C(=O)c1ccc(Cl)cc1)n1ncn(-c2ccc(N3CCNCC3)cc2)c1=O` (stereo not given): 176 °C; `Fc1ccccc1C1=NCc2c(N3CCCC3)ncn2-c2ccc(Cl)cc21`: 114 to 118 °C.
Compound `O=C(CCC(=O)N1CCC[C@H]1C(=O)O)c1ccc(Br)s1` showed a melting point of 166 to 168 °C.
The figure for `COc1ccc(N2N=C3c4cc(Cl)ccc4SCCC3CC2=O)cc1` (stereo not given) is 159 to 161 °C.
The figure for `N#CN=C1CCCCN1C1=CC(CF)(CF)Oc2ccc(C(F)(F)C(F)(F)F)cc21` is 196 to 197 °C; for `C=C(C)C(=O)Oc1ccc(NS(C)(=O)=O)cc1` it is 129 to 131 °C.
Consider `CCOc1cc2c(Nc3ccc(OC)cc3)c(CO)cnc2nc1C`, for which the melting point was in the range of 193 to 197 °C.
`C=CCOc1nc(N)c2ccccc2n1` had a melting point of 105 to 110 °C.
Next, `Cc1c(O)ccc2c(=O)cc(N3CCOCC3)oc12`: > 250 °C; `Cc1ccc(S(=O)(=O)NC(=O)C(C)(N)C(C)C)cc1` (stereo not given): 262 to 265 °C; `CNc1nc(-c2cccc(NC(=O)c3ccccc3Cl)c2)c2cc(OC)c(OC)cc2n1`: 197 to 199 °C.
In the case of `NC(=O)NC(C(=O)O)c1cccs1` (stereo not given), the melting point lay in the range of 183 to 185 °C.
The figure for `Cn1c(N2CCOCC2)nc(C(=O)NCc2ccc(Cl)c(Cl)c2)c(O)c1=O` is 100 to 102 °C.
The figure for `O=C(NC[C@H]1CN(c2ccc(C3C=CS(=O)(=O)CC3)cc2)C(=O)O1)C(F)F` (stereo not given in full) is 135 to 136 °C.
Take `CC1Cc2ccccc2N1c1nc(=O)c2cccnc2s1` (stereo not given): the melting point was in the range of 179 to 180 °C.
The figure for `CC(C)(C)NC(=O)[C@@H]1C[C@H](Cl)CN1C(=O)[C@@H](O)[C@H](Cc1ccccc1)NC(=O)[C@H](CCS(C)(=O)=O)NC(=O)OCc1ccccc1` is 99 to 103 °C; for `CC1(C)CC(OC(=O)c2ccccc2)CC(C)(C)N1OCC=Cc1ccccc1` it is 115 to 116 °C.
Next, `CCOC(=O)NN=Cc1c[nH]c(COC)n1`: 186 to 190 °C; `N#Cc1ccc2[nH]c3ccc(C#N)cc3c2c1`: 360 °C; `CN(Cc1cccc2ccccc12)c1nc(N2CCC(N(C)C)CC2)nc2c(N3CCOCC3)ncnc12`: 124 to 126 °C.
`CCOC(=O)C1(c2ccccc2)CCN(CC(=O)O)CC1` displayed a melting point of 148 to 150 °C.
`CC(C)(C)OC(=O)N1CCC(CCCCN2C(=O)c3ccccc3C2=O)CC1` gave a melting point of 100 to 102 °C.
Next, `Cc1cc(CNC2CCCN(C(=O)c3ccc(Nc4nccc(Nc5ccc(F)cc5)n4)cc3)C2)no1` (stereo not given): 190 to 191 °C.
Next, `Cc1cccc2c1C=Cc1ccccc1C2(C)NO` (stereo not given): 127 to 130 °C; `CC(C)C(=O)NCCCCN1CCN(c2csc3cc(F)ccc23)CC1`: 130 to 131 °C.
Take `O=c1c2c(c3cccnc3n1-c1ccccc1)CCCC2`: the melting point fell in the range of 160 to 162 °C.
The figure for `Cc1c(-c2ccc(F)cc2)n(Cc2ccc(OCCBr)cc2)c2ccc(OCc3ccccc3)cc12` is 114 to 116 °C.
Take `O=C1C=C(Br)C(=CBr)O1`: the melting point is 97 to 98 °C.
